Results: the NIST ThermoML archive (doi:10.1016/j.jct.2013.02.006)
± gives the expanded uncertainty stated by the source.

Assay: activity coefficient (dimensionless); of the first substance listed, at infinite dilution; xn = mol fraction of the nth substance listed
Details: 101 kPa, Liquid, Chromatography, x1 = 0

| Compound | activity coefficient (333.2 K) | activity coefficient (348.2 K) | activity coefficient (363.2 K) |
| --- | --- | --- | --- |
| C=CCCCCC [1-heptene] + CN1CCCC1=O | 6.37 ± 0.43 | 6.24 ± 0.43 | 6.28 ± 0.43 |
| C=CCCCCC [1-heptene] + O=CN1CCOCC1 | 16 ± 1.1 | 14.6 ± 1 | 13.3 ± 0.91 |
| C#CCCCCC [1-heptyne] + CN1CCCC1=O | 1.72 ± 0.12 | 1.79 ± 0.12 | 1.92 ± 0.13 |
| C#CCCCCC [1-heptyne] + O=CN1CCOCC1 | 3.85 ± 0.26 | 3.83 ± 0.26 | 3.68 ± 0.25 |
| C#CCCCC [1-hexyne] + CN1CCCC1=O | 1.47 ± 0.1 | 1.57 ± 0.1 | 1.77 ± 0.12 |
| C#CCCCC [1-hexyne] + O=CN1CCOCC1 | 3.25 ± 0.22 | 3.19 ± 0.22 | 2.78 ± 0.19 |
| C#CCCCCCC [1-octyne] + CN1CCCC1=O | 2.07 ± 0.14 | 2.15 ± 0.15 | 2.16 ± 0.15 |
| C#CCCCCCC [1-octyne] + O=CN1CCOCC1 | 5.15 ± 0.35 | 4.9 ± 0.3 | 4.65 ± 0.32 |
| C=CCCC [1-pentene] + CN1CCCC1=O | 4.75 ± 0.32 | 4.84 ± 0.33 | 4.99 ± 0.34 |
| C=CCCC [1-pentene] + O=CN1CCOCC1 | 9.97 ± 0.68 | 9.43 ± 0.64 | 8.61 ± 0.59 |
| C#CCCC [1-pentyne] + CN1CCCC1=O | 1.27 ± 0.08 | 1.41 ± 0.09 | 1.63 ± 0.11 |
| C#CCCC [1-pentyne] + O=CN1CCOCC1 | 2.56 ± 0.17 | 2.58 ± 0.18 | 2.38 ± 0.16 |
| c1ccccc1 [benzene] + CN1CCCC1=O | 1.1 ± 0.07 | 1.14 ± 0.07 | 1.1 ± 0.07 |
| c1ccccc1 [benzene] + O=CN1CCOCC1 | 1.91 ± 0.13 | 1.82 ± 0.12 | 1.81 ± 0.12 |
| C1CCCCCC1 [cycloheptane] + CN1CCCC1=O | 7.51 ± 0.51 | 6.71 ± 0.46 | 6.8 ± 0.46 |
| C1CCCCCC1 [cycloheptane] + O=CN1CCOCC1 | 15.4 ± 1.1 | 12.7 ± 0.87 | 10.5 ± 0.71 |
| C1CCCCC1 [cyclohexane] + CN1CCCC1=O | 6.32 ± 0.43 | 5.83 ± 0.4 | 5.41 ± 0.37 |
| C1CCCCC1 [cyclohexane] + O=CN1CCOCC1 | 13.8 ± 0.94 | 12.3 ± 0.84 | 11 ± 1 |
| C1CCCCCCC1 [cyclooctane] + CN1CCCC1=O | 8.23 ± 0.56 | 7.62 ± 0.52 | 6.06 ± 0.41 |
| C1CCCCCCC1 [cyclooctane] + O=CN1CCOCC1 | 17.7 ± 1.2 | 14.5 ± 0.99 | 11.9 ± 0.81 |
| C1CCCC1 [cyclopentane] + CN1CCCC1=O | 5.16 ± 0.35 | 4.68 ± 0.32 | 4.55 ± 0.31 |
| C1CCCC1 [cyclopentane] + O=CN1CCOCC1 | 10.2 ± 0.7 | 8.75 ± 0.6 | 7.59 ± 0.52 |
| CCO [ethanol] + CN1CCCC1=O | 0.606 ± 0.042 | 0.605 ± 0.042 | 0.618 ± 0.043 |
| CCO [ethanol] + O=CN1CCOCC1 | 1.2 ± 0.077 | 1.14 ± 0.073 | 0.914 ± 0.058 |

| Compound | activity coefficient (333.2 K) | activity coefficient (348.2 K) | activity coefficient (363.2 K) |
| --- | --- | --- | --- |
| CCc1ccccc1 [ethylbenzene] + CN1CCCC1=O | 1.73 ± 0.12 | 1.83 ± 0.12 | 1.61 ± 0.11 |
| CCc1ccccc1 [ethylbenzene] + O=CN1CCOCC1 | 3.46 ± 0.24 | 3.41 ± 0.23 | 3.21 ± 0.22 |
| CCCCCCC [heptane] + CN1CCCC1=O | 11.4 ± 0.78 | 10.7 ± 0.73 | 10 ± 0.68 |
| CCCCCCC [heptane] + O=CN1CCOCC1 | 31.3 ± 2.1 | 27.5 ± 1.9 | 25.9 ± 1.8 |
| C=CCCCC [hex-1-ene] + CN1CCCC1=O | 5.51 ± 0.38 | 5.44 ± 0.37 | 5.57 ± 0.38 |
| C=CCCCC [hex-1-ene] + O=CN1CCOCC1 | 13.5 ± 0.92 | 11.6 ± 0.79 | 10.5 ± 0.72 |
| CCCCCC [hexane] + CN1CCCC1=O | 9.51 ± 0.65 | 9.19 ± 0.63 | 8.51 ± 0.58 |
| CCCCCC [hexane] + O=CN1CCOCC1 | 24.6 ± 1.7 | 21.5 ± 1.5 | 19.6 ± 1.3 |
| CO [methanol] + CN1CCCC1=O | 0.482 ± 0.037 | 0.556 ± 0.04 | 0.511 ± 0.038 |
| CO [methanol] + O=CN1CCOCC1 | 0.852 ± 0.055 | 0.847 ± 0.054 | 0.706 ± 0.047 |
| CCCCCCCCC [nonane] + CN1CCCC1=O | 16.7 ± 1.1 | 14.9 ± 1 | 12 ± 0.82 |
| CCCCCCCCC [nonane] + O=CN1CCOCC1 | 50.2 ± 3.4 | 43.5 ± 3 | 38.2 ± 2.6 |
| C=CCCCCCC [oct-1-ene] + CN1CCCC1=O | 8.39 ± 0.57 | 7.6 ± 0.52 | 6.7 ± 0.46 |
| C=CCCCCCC [oct-1-ene] + O=CN1CCOCC1 | 20.5 ± 1.4 | 18.4 ± 1.3 | 16.7 ± 1.1 |
| CCCCCCCC [octane] + CN1CCCC1=O | 13.8 ± 0.94 | 13.2 ± 0.9 | 10.6 ± 0.72 |
| CCCCCCCC [octane] + O=CN1CCOCC1 | 39.5 ± 2.7 | 34.3 ± 2.4 | 30.6 ± 2.1 |
| CCCCC [pentane] + CN1CCCC1=O | 8.32 ± 0.57 | 8.11 ± 0.55 | 7.54 ± 0.51 |
| CCCCC [pentane] + O=CN1CCOCC1 | 19.2 ± 1.3 | 17.3 ± 1.2 | 15.3 ± 1 |
| CCCO [propan-1-ol] + CN1CCCC1=O | 0.537 ± 0.039 | 0.552 ± 0.04 | 0.548 ± 0.04 |
| CCCO [propan-1-ol] + O=CN1CCOCC1 | 1.25 ± 0.08 | 1.15 ± 0.073 | 0.913 ± 0.058 |
| CC(C)O [propan-2-ol] + CN1CCCC1=O | 0.627 ± 0.043 | 0.639 ± 0.044 | 0.632 ± 0.044 |
| CC(C)O [propan-2-ol] + O=CN1CCOCC1 | 1.46 ± 0.1 | 1.29 ± 0.083 | 0.933 ± 0.059 |
| Cc1ccccc1 [toluene] + CN1CCCC1=O | 1.39 ± 0.09 | 1.35 ± 0.09 | 1.42 ± 0.09 |
| Cc1ccccc1 [toluene] + O=CN1CCOCC1 | 2.71 ± 0.18 | 4.04 ± 1.5 | 2.55 ± 0.17 |
